Assay results: paper PMC7765321, “Novel Isoniazid-Carborane Hybrids Active In Vitro against Mycobacterium tuberculosis” (Pharmaceuticals, 2020)
Converted amounts (≈) assume the structure as drawn.

Experiments:
HaCaT cells [1] = tested on: HaCaT cells
[2] = Partition (P) and distribution (D) coefficient, shake-flask octan-1-ol/water or PBS
[3] = for permeation compared to INH (4): PAMPA; for PAMPA log Pe: PBS pH 7.4, 18 h, RT, Pe in cm/s
Mtb H37Rv strain = test: microbe, parasite or virus in culture; type: cell-based; conditions: for MIC50: concentration exhibiting 50% inhibition of mycobacterial growth; for MIC50 / MIC99: wild-type Mtb H37Rv, 96 h; for MIC99: concentration exhibiting 99% inhibition of mycobacterial growth
in vitro = conditions: PAMPA, pH 7.4
Mtb = tested on: Mtb; design: method as in PMID 28390957; conditions: against Mtb; cited from earlier work
[4] = Determination of the CC50 value (MTT assay); conditions: human, HaCaT cells (immortalized keratinocytes)
HaCaT cells [5] = conditions: 24 h at MIC50 and MIC99 values for the Mtb strain
HaCaT cells [6] = tested on: HaCaT cells; remark: listed apart in the source
[7] = octan-1-ol/water, shake-flask, RT

Compound | CC50 (HaCaT cells [1]) [µM] | log P [2, 7] | permeation compared to INH (4) [3] | PAMPA log Pe [3] | MIC50 (Mtb H37Rv strain) [µM] | MIC99 (Mtb H37Rv strain) [µM] | other results
N′-((1,12-dicarba-closo-dodecaboran-1-yl)propanoyl)isonicotinohydrazide [Compound 10] | 161 ± 3.89 | 0.99 ± 0.07 | two orders of magnitude higher | −4.65 ± 0.09 | 29.80 | 74.50 | 
N′-((1,2-dicarba-closo-dodecaboran-1-yl)ethylidene)isonicotinohydrazide [Compound 20] | 81.5 ± 7.23 | 1.26 ± 0.22 | one order of magnitude higher | −5.05 ± 0.09 | 0.082 | 1.60 | 
N′-((1,7-dicarba-closo-dodecaboran-1-yl)methylidene)isonicotinohydrazide [Compound 14] | 131 ± 3.46 | 2.03 ± 0.09 | two orders of magnitude higher | −4.06 ± 0.09 | 0.86 | 3.40 | 
NNC(=O)c1ccncc1 [4 (INH), pyridine-4-carbohydrazide, reference compound] |  |  |  |  |  |  | logP at 0.5 h ([2]; octan-1-ol/water): -1 ± 0.09; Papp at 18 h (in vitro): 0.617 ×10⁻⁶ cm/s; MIC50 (Mtb H37Rv strain; Mycobacterium tuberculosis): 0.073 µM (≈ 0.01 µg/mL); MIC99 (Mtb H37Rv strain; Mycobacterium tuberculosis): 0.36 µM (≈ 0.0494 µg/mL); MIC (Mtb): 0.20 µg/mL (≈ 1.46 µM); CC50 [4]: 725.8 ± 2.36 µM
N′-((1,7-dicarba-closo-dodecaboran-1-yl)ethylidene)isonicotinohydrazide [Compound 21] | 78.23 ± 0.71 | 1.66 ± 0.18 | two orders of magnitude higher | −4.40 ± 0.10 | 0.16 | 0.82 | 
N′-((1,2-dicarba-closo-dodecaboran-1-yl)propanoyl)isonicotinohydrazide [Compound 8] | 86.6 ± 3.63 | 0.67 ± 0.07 | two orders of magnitude higher | −4.98 ± 0.12 | 44.70 | 100 | apoptotic/necrotic cells (HaCaT cells [5]): 16.45%; viable cells (MTT) (HaCaT cells [6]; 24 h at concentration consistent with MIC99 for wild-type Mtb): 50%
N′-((1,7-dicarba-closo-dodecaboran-1-yl)ethyl)isonicotinohydrazide [Compound 24] | 105 ± 6.13 | 0.66 ± 0.08 | two orders of magnitude higher | −4.85 ± 0.06 | 0.81 | 3.25 | 
1,12-dicarba-closo-dodecaborane-1-carboxylic acid hydrazide [Compound 3] |  |  |  |  |  |  | growth inhibition of Mtb (Mtb H37Rv strain; at 75 µg/mL (0.37 mM)): not considerably inhibited
N′-((7,8-dicarba-nido-undecaboranyl)methylidene)isonicotinohydrazide [Compound 16] | 249.4 ± 0.56 |  | one order of magnitude higher | −5.05 ± 0.30 | 0.16 | 0.33 | log D7.4 ([2]; octan-1-ol/PBS, shake-flask, RT): 0.67 ± 0.04
N′-((1,12-dicarba-closo-dodecaboran-1-yl)methylidene)isonicotinohydrazide [Compound 15] | 305 ± 6.11 | 2.28 ± 0.20 | three orders of magnitude higher | −3.90 ± 0.17 | 10.30 | 17.20 | 
N′-((1,12-dicarba-closo-dodecaboran-1-yl)ethylidene)isonicotinohydrazide [Compound 22] | 80.2 ± 3.81 | 1.30 ± 0.07 | two orders of magnitude higher | −4.13 ± 0.07 | 0.16 | 1.60 | 
N′-((1,7-dicarba-closo-dodecaboran-1-yl)propanoyl)isonicotinohydrazide [Compound 9] | 290.6 ± 1.45 | 1.11 ± 0.11 | one order of magnitude higher | −5.09 ± 0.07 | 22.40 | 74.50 | cytotoxicity / cell viability (MTT) (HaCaT cells [6]; 24 h at MIC50 and MIC99 values for the ΔkatG strain): did not cause severe cytotoxicity
N′-((1,2-dicarba-closo-dodecaboran-1-yl)ethyl)isonicotinohydrazide [Compound 23] | 86.5 ± 4.59 | 0.64 ± 0.09 | two orders of magnitude higher | −4.16 ± 0.05 | 1.60 | 4.90 | 
N′-((1,12-dicarba-closo-dodecaboran-1-yl)ethyl)isonicotinohydrazide [Compound 25] |  | 1.15 ± 0.14 | two orders of magnitude higher | −4.37 ± 0.04 | 0.32 | 6.50 | 
